According to patent US20080039410A1, “Inositol 1,4,5-Trisphosphate Receptor Mutants and Uses Thereof” (priority 2004, published 2008):
Where no end group is shown, it is not given here. The star is where a group is joined. Myristoyl = CCCCCCCCCCCCCC(=O)*

What was measured:
[1] = system: S2+ InsP3R-1; assay: Potentiation of CCh-induced Ca2+ release after PKA activation (forskolin), S2+ InsP3R-1 constructs in DT-40 3ko cells; assay type: cell-based, rat; settings: 30 min pretreatment, cells expressing S2+ InsP3R-1
Method: DT-40 cells lacking all three InsP3 receptor subtypes DT-40 3ko were transfected using electroporation, 350 V and 950 μF. 2×10^7 cells were co-transfected with 25 μg of the InsP3R cDNA, 25 μg of the muscarinic type 3 (M3) receptor, and 4 μg of the red fluorescent protein plasmid pHcRed1-N1. Cells were incubated with DNA in 500 μL of Optimem media on ice for 10 minutes. The cell/DNA mixture was electroporated, incubated on ice for 30 minutes, brought up to 5 ml with Optimem and placed in a 5% C02 incubator at 39° C. for 5 hours. The cells were then centrifuged and resuspended in 12 ml of complete RPMI media. Transfection efficiency was typically ˜20%. Experiments were performed within 32 hours of transfection.
(§1) Transfected DT-40 3ko cells were washed once in a HEPES-buffered physiological saline solution (HEPES-PSS) containing (in mM) 5.5 glucose, 137 NaCl, 0.56 MgCl2, 4.7 KCl, 1 Na2HPO4, 10 HEPES (pH 7.4), 1.2 CaCl2 and 1% w/v Bovine Serum Albumin. Cells were then resuspended in BSA HEPES-PSS with 1 μM Fura-2 (AM), placed on a 15 mm glass coverslip in a low volume perfusion chamber (Warner Instruments) and allowed to adhere for 30 minutes at room temperature. Cells were perfused continually for 10 minutes with HEPES-PSS before experimentation to allow Fura-2 de-esterification. A field of cells for each experiment was chosen that contained a wide range of transfection efficiency based upon the intensity of red fluorescence emitted when excited at 560 nm. [Ca^2+]i imaging was performed essentially as previously described using an inverted epifluorescence Nikon microscope with a 40× oil immersion objective lens (numerical aperture, 1.3). Cells were excited alternately with light at 340 and 380 nm (±10 mn bandpass filters, Chroma) using a monochrometer (TILL Photonics). Fluorescence images were captured and digitized with a digital camera driven by TILL Photonics software. Images were captured every 2 seconds with an exposure of 35 ms and no binning. 340/380 ratio images were calculated online and stored immediately to hard disk.
(§2) The effects of treatment were determined by normalizing the peak change in fluorescence ratio by stimulation following forskolin or 8-Br cGMP exposure to that of stimulation in control HEPES-PSS. Thus, pooled data represents a normalized fold increase over control for the treated trial. Two tailed heteroscedastic t-tests with P values<0.05 were considered to have statistical significance.
Experiments were performed in DT-40 3ko cells transfected with S2^+ InsP3R-1. Since there are no reports of Gαq coupled receptors expressed in DT-40 cells, initial experiments were performed eliciting [Ca^2+]i changes by stimulating the endogenous B cell receptor with α-IgM antibody. […] Thus, in all further experiments, DT-40 3ko cells were co-transfected with the M3 receptor, and HcRed to facilitate identification of transfected cells (inset FIG. 1). Stimulation of M3 receptors with the muscarinic agonist carbachol (CCh), provided a convenient means of stimulating [Ca^2+]i changes, presumably through Gαq-induced activation of phospholipase C and production of InsP3. […] The potentiation was most marked when threshold elevations in [Ca^2+]i were evoked by the initial exposure to CCh and therefore only cells in which the initial CCh treatment evoked a Δ 340/380 ratio of<0.2 ratio units were included for analysis. […] [Ca^2+]i changes were never evoked by CCh treatment in cells transfected with only M3 cDNA in the absence of InsP3R or likewise InsP3R with no M3 cDNA.
The effects of treatment were determined by normalizing the peak change in fluorescence ratio by stimulation following forskolin or 8-Br-cGMP exposure to that of stimulation in control HEPES-PSS. Thus, pooled data represent a normalized fold increase over control for the treated trial. In all cases where statistical significance is indicated, two-tailed heteroscedastic t tests were performed. […]

[2] = system: S2+ InsP3R-1; assay: Potentiation of CCh-induced Ca2+ release after PKG activation (8-Br cGMP), S2+ InsP3R-1 constructs in DT-40 3ko cells; assay type: cell-based, rat; settings: 30 min pretreatment, cells expressing S2+ InsP3R-1
Method: as §1, §2
Similar experiments were performed to assess the effects on Ca^2+ release of phosphorylating InsP3R-1 with PKG. Cells transfected with S2^+ InsP3R-1 together with M3 receptor and HcRed were stimulated with low, threshold concentrations of CCh (25-50 nM) followed by a 10 min treatment with 10 μM 8-Br cGMP, a specific activator of PKG [48]. […] In a similar fashion to PKA activation, this was manifested as an increase in the CCh-induced initial peak (FIG. 4A and pooled data FIG. 4E).
The effects of treatment were determined by normalizing the peak change in fluorescence ratio by stimulation following forskolin or 8-Br-cGMP exposure to that of stimulation in control HEPES-PSS. Thus, pooled data represent a normalized fold increase over control for the treated trial. In all cases where statistical significance is indicated, two-tailed heteroscedastic t tests were performed. P values<0.05 were considered to indicate statistical significance and are denoted by an asterisk in the figures.
Despite these differences, experiments were performed to define further the phosphorylation sites important for regulation of Ca^2+ release by PKG. […] In contrast, in cells expressing S2+SE no effect on CCh-induced Ca^2+ release following activation of PKG was observed (FIG. 23C and pooled data in FIG. 23D).

[3] = system: InsP3R-III; assay: PKA stimulation of Ca2+ signals in DT-40 3ko cells transfected with rat InsP3R-III; assay type: cell-based

Substance	effect of PKI on forskolin-induced enhancement of Ca^2+ release [1]	effect of PKI on forskolin-induced enhancement of Ca^2+ release ([1]; listed as myristolyated PKI)	effect of PKI on 8-Br cGMP-induced enhancement of Ca^2+ release [2]	effect of PKI on 8-Br cGMP-induced enhancement of Ca^2+ release ([2]; listed as myristolyated PKI)	effect of stimulating PKA on Ca^2+ signals [3]
PKI: cell-permeable PKA inhibitor, myristolyated PKI (Myristoyl-SGRTGRRNA; UniProt P61925 14-22, looked up, fragment) [reference compound]	completely abolishes	completely abolished	does not affect	did not alter	
rat InsP3R-III: rat type 3 InsP3 receptor transfected into DT-40 3ko cells					inhibited
